# According to patent publication US20080009418A1, “Selective Inhibitors” (Alchemia LTD., priority 2004, published 2008):
# Legend:
# Details in all cases: compound at 10 μM
# Human δ-opioid (DOP) = target: T1, Human δ-opioid (DOP) (Homo sapiens, UniProt P41143); assay: Radioligand binding, human δ-opioid (DOP) membranes, FlashPlate, [3H]-Bremazocine
# T1 construct: purchased Perkin Elmer Biosignal
# Procedure, shortened: (§1)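 Cloned human receptor membranes were coated onto FlashPlate wells and incubated with radioligand and compound (added from a 0.5 mM DMSO daughter plate) for 1 hour at room temperature in the dark. Scintillation counting gave percent inhibition, with DMSO defining total and reference ligand defining non-specific binding.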
# Human κ-Opioid (KOP) = target: T2, Human κ-Opioid (KOP) (Homo sapiens, UniProt P41145); assay: Radioligand binding, human κ-opioid (KOP) membranes, filtration, [3H]-Diprenorphine
# T2 construct: purchased Perkin Elmer Biosignal
# T2 sequence (P41145 whole entry): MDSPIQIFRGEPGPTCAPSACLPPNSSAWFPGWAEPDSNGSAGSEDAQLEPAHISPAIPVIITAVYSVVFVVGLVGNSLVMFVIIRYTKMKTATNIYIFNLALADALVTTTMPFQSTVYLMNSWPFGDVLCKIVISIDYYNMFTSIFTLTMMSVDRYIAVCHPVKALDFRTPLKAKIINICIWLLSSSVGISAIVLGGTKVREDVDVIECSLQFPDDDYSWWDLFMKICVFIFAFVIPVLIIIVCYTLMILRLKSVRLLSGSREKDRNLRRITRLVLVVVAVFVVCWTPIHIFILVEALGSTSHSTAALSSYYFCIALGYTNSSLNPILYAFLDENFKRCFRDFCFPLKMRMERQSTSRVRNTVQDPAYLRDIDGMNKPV
# Procedure, shortened: (§2)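 Membranes from cloned human receptors were incubated with compound and radioligand for 1 hour at room temperature. Bound ligand was collected on 0.3% PEI-soaked filters, washed with cold 50 mM Tris-HCl pH 7.4, and counted by scintillation. Percent inhibition was computed against DMSO totals and reference-ligand nonspecific wells.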
# Human Melanocortin (MC3) = target: T3, Human Melanocortin (MC3) (Homo sapiens, UniProt P41968); assay: Radioligand binding, human melanocortin MC3 membranes, FlashPlate, [125I]-NDP-αMSH
# T3 construct: purchased Perkin Elmer Biosignal
# T3 sequence (P41968 whole entry): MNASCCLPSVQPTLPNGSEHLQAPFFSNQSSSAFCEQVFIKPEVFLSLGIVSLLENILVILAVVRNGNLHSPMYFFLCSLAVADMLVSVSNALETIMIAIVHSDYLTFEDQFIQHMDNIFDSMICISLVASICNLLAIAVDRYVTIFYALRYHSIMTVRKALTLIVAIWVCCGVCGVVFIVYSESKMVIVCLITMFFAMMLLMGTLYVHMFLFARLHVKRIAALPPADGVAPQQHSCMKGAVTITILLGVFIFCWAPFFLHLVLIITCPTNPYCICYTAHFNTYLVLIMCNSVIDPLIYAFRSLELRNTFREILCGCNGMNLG
# Procedure, shortened: as §1
# Human Melanocortin (MC4) = target: T4, Human Melanocortin (MC4) (Homo sapiens, UniProt P32245); assay: Radioligand binding, human melanocortin MC4 membranes, FlashPlate, [125I]-NDP-αMSH
# T4 construct: purchased Perkin Elmer Biosignal
# T4 sequence (P32245 whole entry): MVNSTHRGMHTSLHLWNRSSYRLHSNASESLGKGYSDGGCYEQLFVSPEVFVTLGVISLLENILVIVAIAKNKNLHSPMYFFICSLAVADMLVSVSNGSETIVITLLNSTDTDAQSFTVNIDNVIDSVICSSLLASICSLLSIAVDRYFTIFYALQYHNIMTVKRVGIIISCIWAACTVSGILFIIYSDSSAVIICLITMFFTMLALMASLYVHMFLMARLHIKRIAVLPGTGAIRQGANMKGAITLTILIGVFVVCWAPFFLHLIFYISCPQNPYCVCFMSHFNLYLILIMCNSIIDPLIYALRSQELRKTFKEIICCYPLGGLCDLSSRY
# Procedure, shortened: as §1
# Human melanocortin (MC5) = target: T5, Human melanocortin (MC5) (Homo sapiens, UniProt P33032); assay: Radioligand binding, human melanocortin MC5 membranes, FlashPlate, [125I]-NDP-αMSH
# T5 construct: purchased Perkin Elmer Biosignal
# T5 sequence (P33032 whole entry): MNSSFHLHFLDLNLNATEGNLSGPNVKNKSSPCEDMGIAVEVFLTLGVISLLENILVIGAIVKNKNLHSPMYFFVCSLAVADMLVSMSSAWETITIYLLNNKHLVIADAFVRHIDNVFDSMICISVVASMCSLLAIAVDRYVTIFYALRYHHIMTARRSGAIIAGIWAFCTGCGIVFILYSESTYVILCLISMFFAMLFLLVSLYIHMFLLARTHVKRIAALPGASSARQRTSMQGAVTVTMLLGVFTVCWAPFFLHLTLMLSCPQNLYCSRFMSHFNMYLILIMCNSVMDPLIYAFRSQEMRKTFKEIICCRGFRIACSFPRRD
# Procedure, shortened: as §1
# [1] = target: T6, Human melanin-concentrating hormone (MCH1) (Homo sapiens, UniProt Q99705); assay: Radioligand binding, human melanin-concentrating hormone MCH1 membranes, FlashPlate, [125I]-S36057
# T6 construct: purchased Perkin Elmer Biosignal
# T6 sequence (Q99705 whole entry): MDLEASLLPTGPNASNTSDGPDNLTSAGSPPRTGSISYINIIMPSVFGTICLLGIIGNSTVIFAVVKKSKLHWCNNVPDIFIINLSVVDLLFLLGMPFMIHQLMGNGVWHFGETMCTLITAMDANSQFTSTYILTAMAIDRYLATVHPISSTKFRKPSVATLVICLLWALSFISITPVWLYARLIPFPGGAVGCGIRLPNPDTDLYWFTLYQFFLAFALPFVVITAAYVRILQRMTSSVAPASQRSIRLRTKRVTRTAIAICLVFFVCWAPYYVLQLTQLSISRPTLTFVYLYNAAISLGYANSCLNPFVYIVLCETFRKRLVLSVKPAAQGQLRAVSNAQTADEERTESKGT
# Procedure, shortened: as §1
# Human μ-opioid (MOP) = target: T7, Human μ-opioid (MOP) (Homo sapiens, UniProt P35372); assay: Radioligand binding, human μ-opioid (MOP) membranes, FlashPlate, [3H]-Naloxone
# T7 construct: purchased Perkin Elmer Biosignal
# T7 sequence (P35372 whole entry): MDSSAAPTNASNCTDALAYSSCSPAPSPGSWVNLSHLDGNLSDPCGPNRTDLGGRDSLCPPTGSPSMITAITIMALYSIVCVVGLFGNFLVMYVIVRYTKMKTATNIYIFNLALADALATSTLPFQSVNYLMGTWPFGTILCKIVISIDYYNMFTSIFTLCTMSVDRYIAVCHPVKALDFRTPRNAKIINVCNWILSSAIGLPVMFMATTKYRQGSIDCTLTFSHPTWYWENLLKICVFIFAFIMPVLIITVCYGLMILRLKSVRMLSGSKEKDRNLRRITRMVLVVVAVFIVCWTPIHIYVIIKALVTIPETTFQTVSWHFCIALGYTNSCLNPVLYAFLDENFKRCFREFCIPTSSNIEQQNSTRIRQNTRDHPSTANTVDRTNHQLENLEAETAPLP
# Procedure, shortened: as §1
# Human neurokinin (NK1) = target: T8, Human neurokinin (NK1) (Homo sapiens, UniProt P25103); assay: Radioligand binding, human neurokinin NK1 membranes, filtration, [125I]-Substance P
# T8 construct: purchased Perkin Elmer Biosignal
# T8 sequence (P25103 whole entry): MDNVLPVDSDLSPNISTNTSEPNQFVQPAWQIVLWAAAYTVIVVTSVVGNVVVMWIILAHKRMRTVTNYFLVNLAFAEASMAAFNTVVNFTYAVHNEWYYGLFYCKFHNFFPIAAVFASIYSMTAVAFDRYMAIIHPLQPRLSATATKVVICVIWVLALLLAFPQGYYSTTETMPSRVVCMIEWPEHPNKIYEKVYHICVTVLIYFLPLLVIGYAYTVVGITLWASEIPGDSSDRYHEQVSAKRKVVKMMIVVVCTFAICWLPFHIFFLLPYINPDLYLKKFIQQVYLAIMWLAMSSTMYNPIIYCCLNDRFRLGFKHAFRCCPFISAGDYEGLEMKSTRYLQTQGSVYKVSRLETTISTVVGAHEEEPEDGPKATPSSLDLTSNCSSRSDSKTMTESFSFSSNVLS
# Procedure, shortened: as §2
# [2] = target: T9, Human neuropeptide Y (NPY-Y1) (Homo sapiens, UniProt P25929); assay: Radioligand binding, human neuropeptide Y NPY-Y1 membranes, FlashPlate, [125I]-PYY
# T9 construct: purchased Perkin Elmer Biosignal
# T9 sequence (P25929 1-384): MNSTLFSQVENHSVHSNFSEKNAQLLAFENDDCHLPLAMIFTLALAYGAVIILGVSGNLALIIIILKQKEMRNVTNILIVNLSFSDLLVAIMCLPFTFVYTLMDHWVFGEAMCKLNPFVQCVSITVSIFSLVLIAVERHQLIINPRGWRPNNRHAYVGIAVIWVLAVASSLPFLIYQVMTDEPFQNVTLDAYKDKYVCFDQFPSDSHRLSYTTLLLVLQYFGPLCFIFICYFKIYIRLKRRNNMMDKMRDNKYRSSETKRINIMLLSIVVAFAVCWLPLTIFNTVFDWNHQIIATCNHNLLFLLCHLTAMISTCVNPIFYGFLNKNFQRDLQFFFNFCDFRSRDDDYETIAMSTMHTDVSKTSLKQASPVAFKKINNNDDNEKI
# Procedure, shortened: as §1
# Human opioid (ORL1) = target: T10, Human opioid (ORL1) (Homo sapiens, UniProt P41146); assay: Radioligand binding, human opioid ORL1 membranes, FlashPlate, [125I]-Nociceptin
# T10 construct: purchased Perkin Elmer Biosignal
# T10 sequence (P41146 whole entry): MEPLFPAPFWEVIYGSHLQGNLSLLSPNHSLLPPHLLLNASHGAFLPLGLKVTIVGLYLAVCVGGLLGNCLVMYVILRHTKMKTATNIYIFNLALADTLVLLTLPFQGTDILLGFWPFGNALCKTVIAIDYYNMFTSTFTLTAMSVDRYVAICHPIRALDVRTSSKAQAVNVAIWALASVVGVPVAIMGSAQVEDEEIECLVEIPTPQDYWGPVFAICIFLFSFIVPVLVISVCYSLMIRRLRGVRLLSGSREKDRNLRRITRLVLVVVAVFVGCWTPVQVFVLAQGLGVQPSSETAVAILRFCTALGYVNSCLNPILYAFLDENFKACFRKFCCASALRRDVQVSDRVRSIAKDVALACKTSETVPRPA
# Procedure, shortened: as §1
# Mouse urotensin (mUR2) = target: T11, Mouse urotensin (mUR2) (Mus musculus, UniProt Q8VIH9); assay: Radioligand binding, mouse urotensin mUR2 membranes, FlashPlate, [125I]-Urotensin II
# T11 construct: purchased Perkin Elmer Biosignal
# T11 sequence (Q8VIH9 1-385): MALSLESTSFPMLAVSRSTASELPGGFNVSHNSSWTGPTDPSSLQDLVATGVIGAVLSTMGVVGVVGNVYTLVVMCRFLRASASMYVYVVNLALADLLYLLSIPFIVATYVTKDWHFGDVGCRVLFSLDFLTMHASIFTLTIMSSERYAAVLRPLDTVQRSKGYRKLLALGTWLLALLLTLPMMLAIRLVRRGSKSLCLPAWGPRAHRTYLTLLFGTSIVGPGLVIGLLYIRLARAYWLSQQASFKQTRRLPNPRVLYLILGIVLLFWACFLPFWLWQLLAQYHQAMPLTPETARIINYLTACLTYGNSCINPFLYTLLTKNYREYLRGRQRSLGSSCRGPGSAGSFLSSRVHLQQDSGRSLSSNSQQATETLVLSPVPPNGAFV
# Procedure, shortened: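 Cloned mouse urotensin (mUR2) receptor membranes from Perkin Elmer Biosignal were immobilized in FlashPlate microplates using a proprietary coating. Each well got 19.5 μl buffer, then 0.5 μl of DMSO, reference ligand, or compound. Adding 5 μl of [125I]-Urotensin II, diluted to 5× final concentration in binding buffer, started binding. Plates were sealed with TopSeal-A and incubated 1 hour at room temperature in the dark. Wells were counted for 30 seconds each on a TopCount after a 60-second delay, and percentage inhibition was calculated.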
# T1 sequence (P41143 whole entry): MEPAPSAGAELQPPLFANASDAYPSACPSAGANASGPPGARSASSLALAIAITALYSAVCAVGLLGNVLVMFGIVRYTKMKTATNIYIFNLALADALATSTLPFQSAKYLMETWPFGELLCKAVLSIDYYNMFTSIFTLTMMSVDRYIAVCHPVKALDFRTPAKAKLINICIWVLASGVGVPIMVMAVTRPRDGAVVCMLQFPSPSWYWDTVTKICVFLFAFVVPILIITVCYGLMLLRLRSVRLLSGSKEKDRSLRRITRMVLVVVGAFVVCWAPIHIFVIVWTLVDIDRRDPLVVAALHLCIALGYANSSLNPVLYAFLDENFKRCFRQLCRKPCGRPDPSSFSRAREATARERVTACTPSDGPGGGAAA
structure (smiles),measurement,setting,value
CSC1OC(COCc2ccccc2)C(O)C(OCc2ccc(Cl)cc2)C1NC(=O)CCNC(=N)N (stereo not shown) [compound 267],A1: inhibition of radioligand binding,"Human δ-opioid (DOP); [3H]-Bremazocine, FlashPlate",− (“−” indicates less than 50% inhibition at 10 μM)
same,A2: inhibition of radioligand binding,"Human κ-Opioid (KOP); [3H]-Diprenorphine, filtration",− (“−” indicates less than 50% inhibition at 10 μM)
same,A3: inhibition of radioligand binding,"Human Melanocortin (MC3); [125I]-NDP-αMSH, FlashPlate",− (“−” indicates less than 50% inhibition at 10 μM)
same,A4: inhibition of radioligand binding,"Human Melanocortin (MC4); [125I]-NDP-αMSH, FlashPlate",+ (“+” indicates greater than 50% inhibition at 10 μM)
same,A5: inhibition of radioligand binding,"Human melanocortin (MC5); [125I]-NDP-αMSH, FlashPlate",− (“−” indicates less than 50% inhibition at 10 μM)
same,A6: inhibition of radioligand binding,"[1]; [125I]-S36057, FlashPlate",− (“−” indicates less than 50% inhibition at 10 μM)
same,A7: inhibition of radioligand binding,"Human μ-opioid (MOP); [3H]-Naloxone, FlashPlate",− (“−” indicates less than 50% inhibition at 10 μM)
same,A8: inhibition of radioligand binding,"Human neurokinin (NK1); [125I]-Substance P, filtration",+ (“+” indicates greater than 50% inhibition at 10 μM)
same,A9: inhibition of radioligand binding,"[2]; [125I]-PYY, FlashPlate",− (“−” indicates less than 50% inhibition at 10 μM)
same,A10: inhibition of radioligand binding,"Human opioid (ORL1); [125I]-Nociceptin, FlashPlate",− (“−” indicates less than 50% inhibition at 10 μM)
same,A11: inhibition of radioligand binding,"Mouse urotensin (mUR2); [125I]-Urotensin II, FlashPlate",− (“−” indicates less than 50% inhibition at 10 μM)
CO[C@H]1[C@H](O)[C@@H](COCc2ccc(Cl)cc2)OC(OCc2ccc3ccccc3c2)[C@@H]1NC(=O)CCNC(=N)N (stereo partly shown) [compound 79],A1 radioligand binding inhibition,Human δ-opioid (DOP); human δ-opioid (DOP) membranes,− (“−” indicates less than 50% inhibition at 10 μM)
same,A2 radioligand binding inhibition,Human κ-Opioid (KOP); human κ-opioid (KOP) membranes,− (“−” indicates less than 50% inhibition at 10 μM)
same,A3 radioligand binding inhibition,Human Melanocortin (MC3); human melanocortin MC3 membranes,− (“−” indicates less than 50% inhibition at 10 μM)
same,A4 radioligand binding inhibition,Human Melanocortin (MC4); human melanocortin MC4 membranes,+ (“+” indicates greater than 50% inhibition at 10 μM)
same,A5 radioligand binding inhibition,Human melanocortin (MC5); human melanocortin MC5 membranes,+ (“+” indicates greater than 50% inhibition at 10 μM)
same,A6 radioligand binding inhibition,[1]; human MCH1 membranes,− (“−” indicates less than 50% inhibition at 10 μM)
same,A7 radioligand binding inhibition,Human μ-opioid (MOP); human μ-opioid (MOP) membranes,+ (“+” indicates greater than 50% inhibition at 10 μM)
same,A8 radioligand binding inhibition,Human neurokinin (NK1); human neurokinin NK1 membranes,+ (“+” indicates greater than 50% inhibition at 10 μM)
same,A9 radioligand binding inhibition,[2]; human NPY-Y1 membranes,− (“−” indicates less than 50% inhibition at 10 μM)
same,A10 radioligand binding inhibition,Human opioid (ORL1); human ORL1 membranes,− (“−” indicates less than 50% inhibition at 10 μM)
same,A11 radioligand binding inhibition,Mouse urotensin (mUR2); mouse urotensin mUR2 membranes,− (“−” indicates less than 50% inhibition at 10 μM)
